Read-outs that look alike come from different tables or passages of the source.
How the values were obtained:
Conditions in all cases: two to four hours at 37° C.; for IC50: Homo sapiens, 4 h
P-4E-BP1 (T37/46) = assay: Cell based AlphaLISA assay, inhibition of P-4E-BP1 (T37/46) in MDA-MB-468 cells (mTORC1 substrate)
Summary of the method: (§1)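 In MDA-MB-468 cells, phosphorylation of 4EBP1 (Thr37/46), P70S6K (Thr389) and AKT (Ser473) was measured after incubation with inhibitor by AlphaLISA SureFire Ultra on cell lysates, in duplicate. IC50 values came from control-normalized concentration-response regression.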

P-Akt (S473) = assay: Cell based AlphaLISA assay, inhibition of P-Akt (S473) in MDA-MB-468 cells (mTORC2 substrate)
Summary of the method: as §1

P-P70S6K (T389) = assay: Cell based AlphaLISA assay, inhibition of P-P70S6K (T389) in MDA-MB-468 cells (mTORC1 substrate)
Summary of the method: as §1

[1] = AlphaLisa, read-out: pIC50 for Inhibition of mTORC1 and mTORC2 Substrate Phosphorylation P-4E-BP1-(T37/46) (converted)
[2] = AlphaLisa, read-out: pIC50 for Inhibition of mTORC1 and mTORC2 Substrate Phosphorylation p-AKT1/2/3-(S473) (converted)
[3] = AlphaLisa, read-out: pIC50 for Inhibition of mTORC1 and mTORC2 Substrate Phosphorylation p-P70S6K-(T389) (converted)

CO[C@H]1C[C@@H]2CC[C@@H](C)[C@@](O)(O2)C(=O)C(=O)N2CCCC[C@H]2C(=O)O[C@H]([C@H](C)C[C@@H]2CC[C@@H](OC(=S)NCCOCCOCCOCCOCCOCCOCCOCCOCCC(=O)N3CCc4cc(Cn5nc(-c6ccc7oc(N)nc7c6)c6c(N)ncnc65)ccc4C3)[C@H](OC)C2)C[C@@H](OC)[C@H](C)/C=C(\C)[C@@H](O)[C@@H](OC)C(=O)[C@H](C)C[C@H](C)/C=C/C=C/C=C/1C [Example 34]
IC50 (P-4E-BP1 (T37/46); [1]): > 1000 nM | IC50 (P-Akt (S473); [2]): > 1000 nM | IC50 (P-P70S6K (T389); [3]): < 1 nM

CO[C@H]1C[C@@H]2CC[C@@H](C)[C@@](O)(O2)C(=O)C(=O)N2CCCC[C@H]2C(=O)O[C@H]([C@H](C)C[C@@H]2CC[C@@H](OC(=O)NCCOCCOCCOCCOCCOCCOCCOCCOCCC(=O)N3CCc4cc(Cn5nc(-c6ccc7oc(N)nc7c6)c6c(N)ncnc65)ccc4C3)[C@H](OC)C2)C[C@H](N=[N+]=[N-])[C@H](C)/C=C(\C)[C@@H](O)[C@@H](OC)C(=O)[C@H](C)C[C@H](C)/C=C/C=C/C=C/1C [Example 30]
IC50 (P-4E-BP1 (T37/46); [1]): < 3.16 nM | IC50 (P-Akt (S473); [2]): 3.16 to 31.6 nM | IC50 (P-P70S6K (T389); [3]): < 1 nM

CO[C@H]1C[C@@H]2CC[C@@H](C)[C@@](O)(O2)C(=O)C(=O)N2CCCC[C@H]2C(=O)O[C@H]([C@H](C)C[C@@H]2CC[C@@H](OC(=O)NCc3cnc(N4CCN(CCOCCN5CCN(c6ncc(C(=O)N7CCc8cc(Cn9nc(-c%10ccc%11[nH]ccc%11c%10)c%10c(N)ncnc%109)ccc8C7)cn6)CC5)CC4)nc3)[C@H](OC)C2)CC(=O)[C@H](C)/C=C(\C)[C@@H](O)[C@@H](OC)C(=O)[C@H](C)C[C@H](C)/C=C/C=C/C=C/1C [Example 130]
IC50 (P-4E-BP1 (T37/46); [1]): < 3.16 nM | IC50 (P-Akt (S473); [2]): > 1000 nM | IC50 (P-P70S6K (T389); [3]): < 1 nM

CO[C@H]1C[C@@H]2CC[C@@H](C)[C@@](O)(O2)C(=O)C(=O)N2CCCC[C@H]2C(=O)O[C@H]([C@H](C)C[C@@H]2CC[C@@H](OC(=S)NCCOCCOCCOCCOCCOCCOCCOCCOCCC(=O)N3CCc4cc(Cn5nc(-c6ccc7oc(N)nc7c6)c6c(N)ncnc65)ccc4C3)[C@H](OC)C2)C[C@@H](O)[C@H](C)/C=C(\C)[C@@H](O)[C@@H](OC)C(=O)[C@H](C)C[C@H](C)/C=C/C=C/C=C/1C [Example 33]
IC50 (P-4E-BP1 (T37/46); [1]): < 3.16 nM | IC50 (P-Akt (S473); [2]): > 1000 nM | IC50 (P-P70S6K (T389); [3]): < 1 nM

CO[C@H]1C[C@@H]2CC[C@@H](C)[C@@](O)(O2)C(=O)C(=O)N2CCCC[C@H]2C(=O)O[C@H]([C@H](C)C[C@@H]2CC[C@@H](OC(=O)NCc3cnc(N4CCN(C(=O)CCOCCN5CCN(c6ncc(C(=O)NCCS(=O)(=O)c7ccc(C(=O)N8CCOc9ccc(-c%10ccc(N)nc%10)cc9C8)c(C)c7)cn6)CC5)CC4)nc3)[C@H](OC)C2)C[C@@H](O)[C@H](C)/C=C(\C)[C@@H](O)[C@@H](OC)C(=O)[C@H](C)C[C@H](C)/C=C/C=C/C=C/1C [Example 125]
IC50 (P-4E-BP1 (T37/46); [1]): < 3.16 nM | IC50 (P-Akt (S473); [2]): 3.16 to 31.6 nM | IC50 (P-P70S6K (T389); [3]): < 1 nM

CO[C@H]1C[C@@H]2CC[C@@H](C)[C@@](O)(O2)C(=O)C(=O)N2CCCC[C@H]2C(=O)O[C@H]([C@H](C)C[C@@H]2CC[C@@H](OC(=O)NCCOCCOCCOCCOCCOCCOCCOCCOCC(=O)N3CCc4cc(Cn5nc(-c6ccc7oc(N)nc7c6)c6c(N)ncnc65)ccc4C3)[C@H](OC)C2)C[C@@H](O)[C@H](C)/C=C(\C)[C@@H](O)[C@@H](OC)C(=O)[C@H](C)C[C@H](C)/C=C/C=C/C=C/1C [Example 72]
pIC50 for Inhibition of mTORC1 and mTORC2 Substrate Phosphorylation P-4E-BP1-(T37/46) (P-4E-BP1 (T37/46); AlphaLisa): +++ (≥8.5) | pIC50 for Inhibition of mTORC1 and mTORC2 Substrate Phosphorylation p-AKT1/2/3-(S473) (P-Akt (S473); AlphaLisa): +++ (≥8.5) | pIC50 for Inhibition of mTORC1 and mTORC2 Substrate Phosphorylation p-P70S6K-(T389) (P-P70S6K (T389); AlphaLisa): +++ (≥9)

CO[C@H]1C[C@@H]2CC[C@@H](C)[C@@](O)(O2)C(=O)C(=O)N2CCCC[C@H]2C(=O)O[C@H]([C@H](C)C[C@@H]2CC[C@@H](OC(=O)NCc3cnc(N4CCN(CCOCCOCCOCCOCCC(=O)N5CCc6cc(Cn7nc(-c8ccc9oc(N)nc9c8)c8c(N)ncnc87)ccc6C5)CC4)nc3)[C@H](OC)C2)C[C@@H](OC)[C@H](C)/C=C(\C)[C@@H](O)[C@@H](OC)C(=O)[C@H](C)C[C@H](C)/C=C/C=C/C=C/1C [Example 89]
IC50 (P-4E-BP1 (T37/46); [1]): < 3.16 nM | IC50 (P-Akt (S473); [2]): > 1000 nM | IC50 (P-P70S6K (T389); [3]): < 1 nM

CO[C@H]1C[C@@H]2CC[C@@H](C)[C@@](O)(O2)C(=O)C(=O)N2CCCC[C@H]2C(=O)O[C@H]([C@H](C)C[C@@H]2CC[C@@H](O)[C@H](OC)C2)CC(=O)[C@H](C)/C=C(\C)[C@@H](O)[C@@H](OC)C(=O)[C@H](C)C[C@H](C)/C=C/C=C/C=C/1C [Rapamycin, (3S,6R,7E,9R,10R,12R,14S,15E,17E,19E,21S,23S,26R,27R,34aS)-9,10,12,13,14,21,22,23,24,25,26,27,32,33,34,34a-hexadecahydro-9,27-dihydroxy-3-[(1R)-2-[(1S,3R,4R)-4-hydroxy-3-methoxycyclohexyl]-1-methylethyl]-10,21-dimethoxy-6,8,12,14,20,26-hexamethyl-23,27-epoxy-3H-pyrido[2,1-c][1,4]-oxaazacyclohentriacontine-1,5,11,28,29(4H,6H,31H)-pentone, reference compound]
IC50 (P-4E-BP1 (T37/46); AlphaLisa SureFire Ultra, read-out: IC50 for Inhibition of mTORC1 and mTORC2 Substrate Phosphorylation (nM) p-4E-BP1-(T37/46)): > 1000 nM | IC50 (P-Akt (S473); AlphaLisa SureFire Ultra, read-out: IC50 for Inhibition of mTORC1 and mTORC2 Substrate Phosphorylation (nM) p-AKT1/2/3-(5473)): > 1000 nM | IC50 (P-P70S6K (T389); AlphaLisa SureFire Ultra, read-out: IC50 for Inhibition of mTORC1 and mTORC2 Substrate Phosphorylation (nM) p-P7056K-(T389)): 0.2 nM

CO[C@H]1C[C@@H]2CC[C@@H](C)[C@@](O)(O2)C(=O)C(=O)N2CCCC[C@H]2C(=O)O[C@H]([C@H](C)C[C@@H]2CC[C@@H](OC(=O)NCc3cnc(N4CCN(C(=O)CCOCCN5CCN(c6ncc(C(=O)N7CCc8cc(Cn9nc(-c%10ccc%11oc(N)nc%11c%10)c%10c(N)ncnc%109)ccc8C7)cn6)CC5)CC4)nc3)[C@H](OC)C2)C[C@H](N=[N+]=[N-])[C@H](C)/C=C(\C)[C@@H](O)[C@@H](OC)C(=O)[C@H](C)C[C@H](C)/C=C/C=C/C=C/1C [Example 137]
IC50 (P-4E-BP1 (T37/46); [1]): < 3.16 nM | IC50 (P-Akt (S473); [2]): 3.16 to 31.6 nM | IC50 (P-P70S6K (T389); [3]): < 1 nM

CO[C@H]1C[C@@H]2CC[C@@H](C)[C@@](O)(O2)C(=O)C(=O)N2CCCC[C@H]2C(=O)O[C@H]([C@H](C)C[C@@H]2CC[C@@H](OC(=O)NCc3cnc(N4CCN(C(=O)CCOCCN5CCN(c6ncc(C(=O)NCCS(=O)(=O)c7ccc(C(=O)N8CCOc9ccc(-c%10ccc(N)nc%10)cc9C8)c(C)c7)cn6)CC5)CC4)nc3)[C@H](OC)C2)CC(=O)[C@H](C)/C=C(\C)[C@@H](O)[C@@H](OC)C(=O)[C@H](C)C[C@H](C)/C=C/C=C/C=C/1C [Example 124]
IC50 (P-4E-BP1 (T37/46); [1]): < 3.16 nM | IC50 (P-Akt (S473); [2]): 3.16 to 31.6 nM | IC50 (P-P70S6K (T389); [3]): < 1 nM

CO[C@H]1C[C@@H]2CC[C@@H](C)[C@@](O)(O2)C(=O)C(=O)N2CCCC[C@H]2C(=O)O[C@H]([C@H](C)C[C@@H]2CC[C@@H](OC(=O)N3CCC(N)(C(=O)NCCOCCOCCOCCOCCOCCOCCC(=O)N4CCc5cc(Cn6nc(-c7ccc8oc(N)nc8c7)c7c(N)ncnc76)ccc5C4)CC3)[C@H](OC)C2)C[C@@H](O)[C@H](C)/C=C(\C)[C@@H](O)[C@@H](OC)C(=O)[C@H](C)C[C@H](C)/C=C/C=C/C=C/1C [Example 101]
IC50 (P-4E-BP1 (T37/46); [1]): < 3.16 nM | IC50 (P-Akt (S473); [2]): 3.16 to 31.6 nM | IC50 (P-P70S6K (T389); [3]): < 1 nM

CO[C@H]1C[C@@H]2CC[C@@H](C)[C@@](O)(O2)C(=O)C(=O)N2CCCC[C@H]2C(=O)O[C@H]([C@H](C)C[C@@H]2CC[C@@H](OC(=O)NCc3cnc(N4CCN(C(=O)CN(C)CC(=O)NCCOCCOCCC(=O)N5CCc6cc(Cn7nc(-c8ccc9oc(N)nc9c8)c8c(N)ncnc87)ccc6C5)CC4)nc3)[C@H](OC)C2)C[C@@H](OC)[C@H](C)/C=C(\C)[C@@H](O)[C@@H](OC)C(=O)[C@H](C)C[C@H](C)/C=C/C=C/C=C/1C [Example 91]
IC50 (P-4E-BP1 (T37/46); [1]): < 3.16 nM | IC50 (P-Akt (S473); [2]): 3.16 to 31.6 nM | IC50 (P-P70S6K (T389); [3]): < 1 nM

CO[C@H]1C[C@@H]2CC[C@@H](C)[C@@](O)(O2)C(=O)C(=O)N2CCCC[C@H]2C(=O)O[C@H]([C@H](C)C[C@@H]2CC[C@@H](OC(=O)N3CCc4nc(N5CCN(c6ncc(C(=O)NCCOCCOCCOCCOCCC(=O)N7CCc8cc(Cn9nc(-c%10cnc%11[nH]ccc%11c%10)c%10c(N)ncnc%109)ccc8C7)c(N)n6)CC5)ncc4C3)[C@H](OC)C2)CC(=O)[C@H](C)/C=C(\C)[C@@H](O)[C@@H](OC)C(=O)[C@H](C)C[C@H](C)/C=C/C=C/C=C/1C [Example 97]
IC50 (P-4E-BP1 (T37/46); [1]): < 3.16 nM | IC50 (P-Akt (S473); [2]): 3.16 to 31.6 nM | IC50 (P-P70S6K (T389); [3]): < 1 nM

CO[C@H]1C[C@@H]2CC[C@@H](C)[C@@](O)(O2)C(=O)C(=O)N2CCCC[C@H]2C(=O)O[C@H]([C@H](C)C[C@@H]2CC[C@@H](OC(=O)NCc3cnc(N4CCN(c5ncc(C(=O)NCCOCCOCCOCCOCCC(=O)N6CCc7cc(Cn8nc(-c9cnc%10[nH]ccc%10c9)c9c(N)ncnc98)ccc7C6)cn5)CC4CO)nc3)[C@H](OC)C2)CC(=O)[C@H](C)/C=C(\C)[C@@H](O)[C@@H](OC)C(=O)[C@H](C)C[C@H](C)/C=C/C=C/C=C/1C (stereo partly drawn) [Example 86]
IC50 (P-4E-BP1 (T37/46); [1]): < 3.16 nM | IC50 (P-Akt (S473); [2]): 3.16 to 31.6 nM | IC50 (P-P70S6K (T389); [3]): < 1 nM
